Measured values published in patent US20110189318A1, “METHODS FOR ENHANCING THE EXPRESSION OF INTRACELLULAR REDOX-ASSOCIATED FACTORS” (priority 2010, published 2011).

Experiments:
[1] = test system: redox-associated factors (thioredoxin reductase, thioredoxin, glutathione reductase, glutaredoxin); experiment: mRNA expression of redox-associated factors in normal human epidermal keratinocytes (RT-PCR); format: cell-based; conditions: 10 μM, 24 hours, compared with vitamin E and lipoic acid, FIG. 1
Method: (§1) Normal human epidermal keratinocytes (KK-4009, KURABO) were cultured in Defined Keratinocyte-SFM medium (10744-019, GIBCO) with 5% CO2 under high humidity at 37° C. For the cells with 100% of final density, the medium was replaced with EpiLife™ Calcium-Free Phenol Red Free medium (M-EPICF/PRF-500, KURABO) whose calcium concentration had been adjusted to 1.5 mM. Twenty-four hours later, kaempferol (K0018, Tokyo Chemical Industry Co., Ltd), vitamin E (95240, FULKA), or lipoic acid ((+/−)-α-lipoic acid (T1395, SIGMA) was added so as to have a final concentration of 10 μM.
Twenty-four hours after adding the above agents, RNA was isolated by using QIAZOL Lysis Reagent (79306, QIAGEN) and purified by using RNeasy Kit (74106, QIAGEN). Subsequently, mRNAs of thioredoxin reductase, thioredoxin, glutathione reductase, glutaredoxin, and the ribosomal protein as an internal standard were quantified by the LightCycler™ software (Roche) using QuantiTect™ SYBR Green RT-PCR Kit (204243, QIAGEN). The Sequences of the used primers are shown below.
The mRNA amounts of thioredoxin reductase, thioredoxin, glutathione reductase and glutaredoxin were divided by the mRNA amount of the ribosomal protein to obtain the mRNA expression levels.

[2] = test system: thioredoxin reductase and glutathione reductase; experiment: mRNA expression of redox-associated factors in skin-equivalent models (q-PCR); format: cell-based, human; conditions: epidermal layer, 2 μM or 10 μM, 24 hours, FIG. 2
Method: Skin-equivalent models were made from normal human keratinocytes (Invitrogen), normal human fibroblasts (ATCC) and collagen I (Sigma), and cultured in Dulbecco's Modified Eagle's Medium (D-MEM) (Invitrogen) with 5% CO2 under high humidity at 37° C. Two μM or 10 μM kaempferol was added into the culture medium, and the models were cultured for twenty-four hours. Then RNA was isolated from epidermal layer of the skin-equivalent models by using a QIAGEN mRNA isolation kit. Subsequently, mRNAs of thioredoxin reductase and glutathione reductase, and 36B4 as an internal standard, were quantified by q-PCR (quantitative PCR by Bio-Rad MyiQ™ single color real time PCR detection system) using the Real-time PCR kit (Bio-Rad). The primers were purchased from QIAGEN (TXNRD2: #QT00070371; GSR; #QT00038325). The amounts of thioredoxin reductase and glutathione reductase were divided by the mRNA amount of 36B4 to obtain the mRNA expression level.

thioredoxin superfamily = experiment: Screen for flavonoid compounds enhancing expression of thioredoxin superfamily in keratinocytes; format: cell-based; conditions: normal human epidermal keratinocytes, 10 μM, 24 hours; FIG. 3
Method: as §1, with “each of the following agents” for “kaempferol (K0018, Tokyo Chemical Industry Co., Ltd), vitamin E (95240, FULKA), or lipoic acid ((+/−)-α-lipoic acid (T1395, SIGMA)”
Twenty-four hours after adding the above agents, the mRNA expression levels of the redox-associated factors were quantified by the same method as Example 1.

thioredoxin reductase = experiment: Thioredoxin reductase activity in lysates of treated keratinocytes; format: cell-based; conditions: normal human epidermal keratinocytes, 10 μM, 24 hours, relative to control; FIG. 5
Method: Normal human epidermal keratinocytes (KK-4009, KURABO) were cultured in Defined Keratinocyte-SFM medium (10744-019, GIBCO) with 5% CO2 under high humidity at 37° C. For the cells with 100% of final density, the medium was replaced with EpiLife™ Calcium-Free Phenol Red Free medium (M-EPICF/PRF-500, KURABO) whose calcium concentration had been adjusted to 1.5 mM. Twenty-four hours later, kaempferol (K0018, Tokyo Chemical Industry Co., Ltd) or quercetin (173-00403, Wako Pure Chemical Industries, Ltd.) was added so as to have a final concentration of 10 μM. Twenty-four hours after adding the agents, the cells were dissolved in lysis buffer, and the insoluble fraction was removed by centrifugation at 14,000 rpm, 4° C. for 15 minutes. The amount of total protein in the soluble fraction was quantified, and then thioredoxin reductase activity was measured by the method of Arne Holmgren et al. (METHODS IN ENZYMOLOGY, 1995, 252, 199-208).

IL1β = experiment: Suppression of expression of inflammatory cytokine IL1β mRNA in keratinocytes; format: cell-based; conditions: normal human epidermal keratinocytes, kaempferol 10 μM, extracts 0.1%, 24 hours; FIG. 6
Method: Normal human epidermal keratinocytes (KK-4009, KURABO) were cultured in Defined Keratinocyte-SFM medium (10744-019, GIBCO) with 5% CO2 under high humidity at 37° C. For the cells with 100% of final density, the medium was replaced with EpiLifeTM Calcium-Free Phenol Red Free medium ([…]) in which calcium concentration had been adjusted to 1.5 mM. Twenty-four hours later, kaempferol was added to have 10 μM of final concentration and each of the following plant extracts was added to have a final concentration of 0.1%. kaempferol ([…], Tokyo Chemical Industry Co., Ltd); K. galanga extract: which is obtained by the extraction of Kaempferia galanga rhizomes with 50% 1,3-butylene glycol; Ginkgo leaf extract: which is obtained by resolving 50% ethanol extract from Ginkgo biloba L. leaves in 1,3-butylene glycol. Twenty-four hours after adding the above agents, RNA was isolated by the same method as Example 1, and the mRNA expression level of the inflammation-associated factor (IL1β) was quantified. The used primers are shown below. The mRNA amount of IL1β was divided by the mRNA amount of the ribosomal protein to obtain the mRNA expression level.

| SMILES | expression of the redox-associated factors (mRNA expression level) [1] | expression of the redox-associated factors (mRNA expression level) [2] | expression of the thioredoxin superfamily (mRNA expression level) (thioredoxin superfamily) | thioredoxin reductase activity (thioredoxin reductase) | suppression of the inflammatory cytokine IL1β (mRNA expression level) (IL1β) |
| --- | --- | --- | --- | --- | --- |
| O=c1c(O)c(-c2ccc(O)cc2)oc2cc(O)cc(O)c12 [kaempferol, Kaempferol] | significantly enhanced | significantly enhanced | significantly enhance | enhance | suppression |
| O=c1c(O)c(-c2ccc(O)c(O)c2)oc2cc(O)cc(O)c12 [quercetin, Quercetin] | – | – | significantly enhance | enhance | – |
| O=c1c(O)c(-c2cc(O)c(O)c(O)c2)oc2cc(O)cc(O)c12 [Myricetin, reference compound] | – | – | does not have such a function | – | – |
